Source: patent US10173981B2, “Picolinamides as fungicides” (DOW AGROSCIENCES LLC, priority 2014, dated 2019)
Read-outs that look alike come from different tables or passages of the source.

What was measured:
Assay type in all cases: in vivo
Puccinia triticina = test: Fungicidal activity: wheat brown rust (PUCCRT), wheat seedlings; settings: for pest or weed control at 100 ppm: High volume, wheat; for pest or weed control at 121.5 g/ha: Low Volume Cereal Activity at 121.5 g/Ha
Experimental: All fungicides were evaluated using the aforementioned method for their activity vs. all target diseases, unless stated otherwise. Wheat leaf blotch and brown rust activity were also evaluated using track spray applications, in which case the fungicides were formulated as EC formulations, containing 0.1% Trycol 5941 in the spray solutions. Wheat plants (variety Yuma) were grown from seed in a greenhouse in 50% mineral soil/50% soil-less Metro mix until the first leaf was fully emerged, with 7-10 seedlings per pot. These plants were inoculated with an aqueous spore suspension of Zymoseptoria tritici either prior to or after fungicide treatments. After inoculation the plants were kept in 100% relative humidity (one day in a dark dew chamber followed by two to three days in a lighted dew chamber at 20° C.) to permit spores to germinate and infect the leaf. The plants were then transferred to a greenhouse set at 20° C. for disease to develop. When disease symptoms were fully expressed on the 1st leaves of untreated plants, infection levels were assessed on a scale of 0 to 100 percent disease severity. Percent disease control was calculated using the ratio of disease severity on treated plants relative to untreated plants. Example B: Evaluation of Fungicidal Activity: Wheat Brown Rust (Puccinia triticina; Synonym: Puccinia recondita f. sp. tritici; Bayer code PUCCRT) Wheat plants (variety Yuma) were grown from seed in a greenhouse in 50% mineral soil/50% soil-less Metro mix until the first leaf was fully emerged, with 7-10 seedlings per pot. These plants were inoculated with an aqueous spore suspension of Puccinia triticina either prior to or after fungicide treatments. […] The plants were then transferred to a greenhouse set at 24° C. for disease to develop. Fungicide formulation, application and disease assessment followed the procedures as described in the Example A.

Zymoseptoria tritici = test: Fungicidal activity: leaf blotch of wheat (SEPTTR), wheat seedlings; settings: for pest or weed control at 100 ppm: High volume, wheat; for pest or weed control at 121.5 g/ha: Low Volume Cereal Activity at 121.5 g/Ha
Experimental: All fungicides were evaluated using the aforementioned method for their activity vs. all target diseases, unless stated otherwise. Wheat leaf blotch and brown rust activity were also evaluated using track spray applications, in which case the fungicides were formulated as EC formulations, containing 0.1% Trycol 5941 in the spray solutions. Wheat plants (variety Yuma) were grown from seed in a greenhouse in 50% mineral soil/50% soil-less Metro mix until the first leaf was fully emerged, with 7-10 seedlings per pot. These plants were inoculated with an aqueous spore suspension of Zymoseptoria tritici either prior to or after fungicide treatments. After inoculation the plants were kept in 100% relative humidity (one day in a dark dew chamber followed by two to three days in a lighted dew chamber at 20° C.) to permit spores to germinate and infect the leaf. The plants were then transferred to a greenhouse set at 20° C. for disease to develop. When disease symptoms were fully expressed on the 1st leaves of untreated plants, infection levels were assessed on a scale of 0 to 100 percent disease severity. Percent disease control was calculated using the ratio of disease severity on treated plants relative to untreated plants.

Alternaria solani = test: Fungicidal activity: tomato early blight (ALTESO), tomato plants; settings: 1DP, high volume, read-out: ALTESO (% control rating)
Venturia inaequalis = test: Fungicidal activity: apple scab (VENTIN), apple seedlings; settings: 1DP, high volume, read-out: VENTIN (% control rating)
Pyricularia oryzae = test: whole plant or invertebrate; settings: read-out: PYRIOR (% control rating)
Cercospora beticola = test: Fungicidal activity: leaf spot of sugar beets (CERCBE); settings: 1DP, high volume, sugar beet, read-out: CERCBE (% control rating)
Rhyncosporium secalis = test: Fungicidal activity: barley scald (RHYNSE), barley seedlings; settings: Hordeum vulgare, 1DP, high volume, read-out: RHYNSE (% control rating)
Phakopsora pachyrhizi = test: Fungicidal activity: Asian soybean rust (PHAKPA), soybean seedlings; settings: High volume; for pest or weed control at 25 ppm: Phakopsora pachyrhizi
Leptosphaeria nodorum = test: Fungicidal activity: wheat glume blotch (LEPTNO), wheat seedlings; settings: Parastagonospora nodorum, 1DP, high volume, read-out: LEPTNO (% control rating)
[1] = test system: Colletotrichum lagenarium; test: Fungicidal activity: cucumber anthracnose (COLLLA), cucumber seedlings; settings: Colletotrichum orbiculare, 1DP, high volume, read-out: COLLLA (% control rating)
[2] = 24 h, 1 day protectant, read-out: PHAKPA 1 DP (% control rating)
[3] = 72 h, 3 day curative, read-out: PHAKPA 3 DC (% control rating)
[4] = 24 h, 1 Day Protectant, read-out: PUCCRT 1 DP (Wheat Brown Rust, 1 Day Protectant)
[5] = 72 h, 3 Day Curative, read-out: PUCCRT 3 DC (Wheat Brown Rust, 3 Day Curative)
[6] = 24 h, 1 Day Protectant, read-out: SEPTTR 1 DP (Wheat Leaf Blotch, 1 Day Protectant)
[7] = 72 h, 3 Day Curative, read-out: SEPTTR 3 DC (Wheat Leaf Blotch, 3 Day Curative)

COc1cc(F)ccc1[C@@H](Oc1ccccc1)[C@H](C)OC(=O)[C@H](C)NC(=O)c1nccc(OC)c1O [Example 178]
pest or weed control at 100 ppm (Puccinia triticina; 24 h, 1 day protectant, read-out: PUCCRT 1 DP (% control rating)): > 80% | pest or weed control at 100 ppm (Puccinia triticina; 72 h, 3 day curative, read-out: PUCCRT 3 DC (% control rating)): < 80% | pest or weed control at 100 ppm (Zymoseptoria tritici; 24 h, 1 day protectant, read-out: SEPTTR 1 DP (% control rating)): > 80% | pest or weed control at 100 ppm (Zymoseptoria tritici; 72 h, 3 day curative, read-out: SEPTTR 3 DC (% control rating)): > 80%

COc1ccnc(C(=O)N[C@@H](C)C(=O)O[C@@H](C)C(Oc2ccc(F)cc2)c2ccc(F)cc2)c1OC(C)=O (stereo partly shown) [Example 236]
pest or weed control at 100 ppm (Alternaria solani): < 80% | pest or weed control at 100 ppm (Venturia inaequalis): > 80% | pest or weed control at 100 ppm (Pyricularia oryzae): > 80% | pest or weed control at 100 ppm (Cercospora beticola): > 80% | pest or weed control at 100 ppm (Rhyncosporium secalis): > 80% | pest or weed control at 25 ppm (Phakopsora pachyrhizi; [2]): > 80% | pest or weed control at 25 ppm (Phakopsora pachyrhizi; [3]): < 0% | pest or weed control at 121.5 g/ha (Puccinia triticina; [4]): > 80% | pest or weed control at 121.5 g/ha (Puccinia triticina; [5]): > 80% | pest or weed control at 100 ppm (Leptosphaeria nodorum): > 80% | pest or weed control at 100 ppm [1]: < 80% | pest or weed control at 121.5 g/ha (Zymoseptoria tritici; [6]): > 80% | pest or weed control at 121.5 g/ha (Zymoseptoria tritici; [7]): > 80%

COc1cc(C)ccc1[C@@H](Oc1ccccc1)[C@H](C)OC(=O)[C@H](C)NC(=O)c1nccc(OC)c1OC(C)=O [Example 269]
pest or weed control at 25 ppm (Phakopsora pachyrhizi; [2]): > 80% | pest or weed control at 25 ppm (Phakopsora pachyrhizi; [3]): < 80% | pest or weed control at 121.5 g/ha (Puccinia triticina; [4]): > 80% | pest or weed control at 121.5 g/ha (Puccinia triticina; [5]): > 80% | pest or weed control at 121.5 g/ha (Zymoseptoria tritici; [6]): > 80% | pest or weed control at 121.5 g/ha (Zymoseptoria tritici; [7]): > 80%

COc1cc(F)ccc1[C@@H](Oc1ccccc1)[C@H](C)OC(=O)[C@H](C)NC(=O)c1nccc(OC)c1OC(C)=O [Example 270]
PHAKPA 1 DP (% control rating) (Phakopsora pachyrhizi; 25 ppm, 1 day protectant): B (≤80) | PHAKPA 3 DC (% control rating) (Phakopsora pachyrhizi; 25 ppm, 3 day curative): D (≤0)
